In US11673866B2, “Estrogen receptor beta ligands for the prevention and treatment of multiple sclerosis (MS) and other demyelinating, inflammatory and neurodegenerative diseases” (The Board of Trustees of the University of Illinois, priority 2018, dated 2023):
Entries after “also recorded” stand apart in the source; their conditions may differ.

How the values were obtained:
Type in all cases: in vivo, mouse
[1] = tested on: EAE mice; assay: Rotarod behavioral assay in EAE mice; set-up: key to Disability: Rotarod performance: ‘+’ indicate marker was significantly (p ≤ 0.05) increased in treatment group relative to vehicle; ‘−’ indicates marker was significantly (p ≤ 0.05) decreased in treatment group relative to vehicle; ○: ‘o’ indicate marker did not change relative to vehicle; conditions: for Disability: Rotarod performance: vs vehicle; for rotarod performance (motor function): therapeutic s.c. from day 8 (postEAE)
Method: Rotarod behavioral assay: Motor behavior was tested up to two times per week for each mouse using a rotarod apparatus (Med Associates, Inc., St. Albans, Vt.). Briefly, animals were placed on a rotating horizontal cylinder for a maximum of 200 seconds. The amount of time the mouse remained walking on the cylinder without falling was recorded. Each mouse was tested on a speed of 3-30 rpm and given three trials for any given day. The three trials were averaged to report a single value for an individual mouse, and averages were then calculated for all animals within a given treatment group (Moore et al., 2014). The first two trial days prior to immunization served as practice trials.
As a complementary assay of motor function, mice were tested on a rotarod device following a previously described protocol (Moore et al., 2014). […] (FIG. 2B).

[2] = tested on: EAE mice; assay: EAE clinical disease score; set-up: key to Disability: Disease score: ‘+’ indicate marker was significantly (p ≤ 0.05) increased in treatment group relative to vehicle; ‘−’ indicates marker was significantly (p ≤ 0.05) decreased in treatment group relative to vehicle; ○: ‘o’ indicate marker did not change relative to vehicle; conditions: for Disability: Disease score / EAE clinical scores / disease progression: vs vehicle; for EAE clinical symptoms during peak disease: therapeutic 5 mg/kg/d from day 8 (postEAE); for EAE clinical scores / disease progression: therapeutic s.c. from day 8 (postEAE)
[3] = tested on: CXCL1; assay: CXCL1 staining in thoracic ventral column white matter of EAE mice; set-up: key to CNS Chemokines: CXCL1: ‘+’ indicate marker was significantly (p ≤ 0.05) increased in treatment group relative to vehicle; ‘−’ indicates marker was significantly (p ≤ 0.05) decreased in treatment group relative to vehicle; ○: ‘o’ indicate marker did not change relative to vehicle; conditions: vs vehicle; for CXCL1 staining intensity, thoracic ventral column: therapeutic treatment (postEAE)
Text: (§1) Immunohistochemistry: Before histological staining, 40-μm free floating sections were thoroughly washed with PBS to remove residual sodium azide (Crawford et al., 2010). Sections were permeabilized with 0.3% Triton X-100 in ix PBS and 15% normal goat serum (NGS). Myelination, gliosis and immune markers were visualized by the following primary antibodies at a concentration of 1:500 unless otherwise noted: chicken anti-myelin basic protein (MBP; polyclonal, EMD Millipore, Darmstadt, Germany), chicken anti-glial fibrillary acidic protein (GFAP; EMD Millipore, Darmstadt), rat anti-cluster of differentiation 45 (CD45; clone 30-F11, BD Biosciences, San Diego, Calif.), mouse anti-ionized calcium-binding adapter molecule 1/allograft inflammatory factor-1 (Iba1/AIF1; clone 20A12.1, EMD Millipore, Darmstadt, Germany), goat anti-CXCL1 (R&D systems; Minneapolis, Minn.) at 1:250 and mouse anti-adenomatous polyposis coli (CC-1; clone CC-1, Genetex, Irvine, Calif.). Secondary staining was performed using polyclonal fluorophore-conjugated antibodies from ThermoFisher Scientific at a concentration of 1:500 unless otherwise specified: goat anti-chicken Alexa Fluor® 555 (AF555), goat anti-rabbit Alexa Fluor® 647 (AF647), donkey anti-chicken IgY Cy3 (EMD Millipore), goat anti-rat IgG AF647, goat anti-rabbit IgG Cy3 (EMD Millipore), goat anti-mouse IgG2b AF647 and rabbit anti-goat AF647. Nuclei were counter stained with 4′,6-Diamidino-2-phenylindole (DAPI, 2 ng/ml; Molecular Probes) for 10 minutes after incubation with secondary antibodies, and sections were mounted on glass slides, allowed to dry, and coverslipped with Fluoromount G mounting medium (Thermo Fisher Scientific) for imaging.
(§2) Confocal Microscopy: Thoracic spinal cord dorsal and ventral column sections, as well as CC were imaged using an Olympus BX61 confocal microscope (Olympus America Inc., Center Valley, Pa.) using a 10× and 40× objective. Z-stack projections were compiled using SlideBook 6 software (Intelligent Imaging Innovations, Inc., Denver, Colo.). Immunostaining was quantified using unbiased stereology (Crawford et al., 2010). All images (RGB) were Confocal converted to grayscale, split, and separated by color channel using imageJ version 2.2.0-rc-46/1.50 g (NIH). To avoid experimenter bias, auto-adjustment of brightness and contrast, as well as threshold of staining signal, was carried out by ImageJ. MBP^+, GFAP^+, CD45^+, Iba1^+, CC1^+, and CXCL1^+, staining intensity was measured as percent area of positive immunoreactivity within the region of interest and intensity of signal determined by ImageJ.
Under inflammatory conditions, such as those generated by MS, astrocytes undergo NF-κB-dependent upregulation of CXCL1, which is thought to recruit OPCs to the site of demyelinating injury (Omari et al., 2006; Xue et al., 2014). Thus, having observed that IndCl raised its production by peripheral leukocytes, CXCL1 expression in thoracic ventral column white matter was next evaluated.

[4] = tested on: CD45+ leukocyte, Iba1+ macrophage/microglia, GFAP+ astrocytes; assay: CD45, Iba1 and GFAP staining in thoracic spinal cord dorsal column of EAE mice; set-up: key to CNS Cellular Inflammation: CD45 / CNS Cellular Inflammation: Iba1 / CNS Cellular Inflammation: GFAP: ‘+’ indicate marker was significantly (p ≤ 0.05) increased in treatment group relative to vehicle; ‘−’ indicates marker was significantly (p ≤ 0.05) decreased in treatment group relative to vehicle; ○: ‘o’ indicate marker did not change relative to vehicle; conditions: vs vehicle; for CD45 fluorescence intensity, spinal cord dorsal column / GFAP fluorescence intensity, spinal cord dorsal column: therapeutic treatment (postEAE)
Text: as §1, §2
To assess whether IndCl analogues exert similar anti-inflammatory effects, CD45+ leukocyte, ionized calcium-binding adapter molecule 1 (Iba1)+ macrophage/microglia, and GFAP+ astrocytes were assessed in thoracic spinal cord dorsal column sections from normal and EAE mice.

[5] = Post (therapeutic, postEAE) treatment of EAE mice
[6] = Pre (prophylactic, preEAE) E2 treatment of EAE mice

Compound | Disability: Rotarod performance [1, 5] | Disability: Rotarod performance [1, 6] | Disability: Disease score [2, 5] | Disability: Disease score [2, 6] | CNS Chemokines: CXCL1 [3, 5] | CNS Chemokines: CXCL1 [3, 6] | CNS Cellular Inflammation: CD45 [4, 5] | CNS Cellular Inflammation: GFAP [4, 5] | CNS Cellular Inflammation: Iba1 [4, 5] | CNS Cellular Inflammation: CD45 [4, 6] | CNS Cellular Inflammation: GFAP [4, 6] | CNS Cellular Inflammation: Iba1 [4, 6] | rotarod performance (motor function) [1] | EAE clinical symptoms during peak disease [2] | EAE clinical scores / disease progression [2] | CXCL1 staining intensity, thoracic ventral column [3] | CD45 fluorescence intensity, spinal cord dorsal column [4] | GFAP fluorescence intensity, spinal cord dorsal column [4]
C[C@]12CC[C@@H]3c4ccc(O)cc4CC[C@H]3[C@@H]1CC[C@@H]2O [E2, 170 estradiol] | ○ | + | ○ | − | + | ○ | − | ○ | ○ | − | − | − |  |  |  |  |  | 
Oc1ccc(-n2nc3ccc(O)cc3c2Cl)cc1 [IndCl, chloroindazole] | ○ |  | ○ |  | + |  | − | ○ | − |  |  |  | had a tendency to fall from the cylinder abruptly | did not significantly affect EAE clinical symptoms | reversed disease progression over time | significant increase; also recorded: significantly increased | similar | 
Oc1ccc(-n2nc3ccc(O)cc3c2Cl)c(Cl)c1 [IndCl-o-Cl, 3-chloro-2-(2-chloro-4-hydroxyphenyl)-2H-indazol-5-ol] | + |  | − |  | + |  | − | ○ | ○ |  |  |  | increase of EAE mice remaining on the rotarod; also recorded: improved rotarod performance | did not significantly affect EAE clinical symptoms | reversed disease progression over time; also recorded: significantly reduced | significant increase; also recorded: significantly increased | similar | similar
Cc1cc(O)ccc1-n1nc2ccc(O)cc2c1Cl [IndCl-o-Me, 3-chloro-2-(4-hydroxy-2-methylphenyl)-2H-indazol-5-ol] | + |  | − |  | + |  | − | ○ | ○ |  |  |  | improved rotarod performance; also recorded: greatest improvement in motor function | did not significantly affect EAE clinical symptoms | reversed disease progression over time; also recorded: significantly reduced | significant increase; also recorded: significantly increased | similar | similar
